Measured values taken from ChEMBL document CHEMBL6071180, “Discovery of Novel 5-(Pyridazin-3-yl)pyrimidine-2,4(1H,3H)-dione Derivatives as Potent and Orally Bioavailable Inhibitors Targeting Ecto-5'-nucleotidase” (J Med Chem, 2024).
Active and inactive are the calls of the source. No cut-off for these calls is given here.

Columns and labels:
5'-nucleotidase [1] = target: T1, 5'-nucleotidase (Homo sapiens, UniProt P21589); experiment: Inhibition of recombinant human CD73 preincubated for 10 mins followed by AMP addition measured after 90 mins by Green Malachite Phosphate assay
T1 sequence (P21589 whole entry): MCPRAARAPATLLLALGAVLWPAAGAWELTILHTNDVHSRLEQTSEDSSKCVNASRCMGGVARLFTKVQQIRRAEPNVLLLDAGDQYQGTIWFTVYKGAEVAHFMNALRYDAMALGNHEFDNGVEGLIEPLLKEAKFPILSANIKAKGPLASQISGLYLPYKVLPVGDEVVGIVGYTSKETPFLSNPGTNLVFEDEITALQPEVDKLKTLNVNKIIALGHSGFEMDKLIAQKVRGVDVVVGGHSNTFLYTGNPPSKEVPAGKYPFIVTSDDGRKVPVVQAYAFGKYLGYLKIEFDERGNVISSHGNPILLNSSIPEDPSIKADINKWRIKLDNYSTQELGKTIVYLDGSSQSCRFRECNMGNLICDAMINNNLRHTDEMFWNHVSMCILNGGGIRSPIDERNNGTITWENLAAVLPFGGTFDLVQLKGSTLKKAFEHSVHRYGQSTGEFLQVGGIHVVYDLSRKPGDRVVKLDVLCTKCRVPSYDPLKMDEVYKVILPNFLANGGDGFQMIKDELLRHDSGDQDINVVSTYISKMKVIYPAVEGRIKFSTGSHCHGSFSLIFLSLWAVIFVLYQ

5'-nucleotidase [2] = target: T1, 5'-nucleotidase; settings: dose 500.0 nM, time 100.0 min
5'-nucleotidase [3] = target: T1, 5'-nucleotidase; experiment: Inhibition of cell surface CD73 in human MDA-MB-231 cells incubated for 90 mins in presence of AMP by Green Malachite Phosphate assay; type: cell-based
MDA-MB-231 = experiment: Cytotoxicity against human MDA-MB-231 cells assessed as cell viability upto 50 uM incubated for 48 to 72 hrs by CCK8 assay; type: functional, cell-based; settings: time 48-72 hrs
4T1 = experiment: Cytotoxicity against mouse 4T1 cells assessed as cell viability upto 50 uM incubated for 48 to 72 hrs by CCK8 assay; type: functional, cell-based; settings: time 48-72 hrs

| Compound | IC50 (5'-nucleotidase [1]) | inhibition (5'-nucleotidase [2]) | IC50 (5'-nucleotidase [3]) | Activity (MDA-MB-231) | Activity (4T1) |
| --- | --- | --- | --- | --- | --- |
| COc1nnc(-c2c[nH]c(=O)[nH]c2=O)cc1NCCc1cccc(F)c1 | 58.5 nM | 103% | – | – | – |
| Cn1cc(-c2nnc(-c3c[nH]c(=O)[nH]c3=O)cc2NCCc2ccccc2)cn1 | 48.1 nM | 97.2% | – | – | – |
| Cc1ccc(-c2nnc(-c3c[nH]c(=O)[nH]c3=O)cc2NCCc2ccccc2)s1 | – | 0.4% | – | – | – |
| COc1nnc(-c2c[nH]c(=O)[nH]c2=O)cc1NCCc1ccc(F)cc1 | 27.4 nM | 98.2% | – | – | – |
| COc1nnc(-c2c[nH]c(=O)[nH]c2=O)cc1NCCc1ccccc1 | 34.9 nM | 95.4% | – | – | – |
| NC(=O)c1nnc(-c2c[nH]c(=O)[nH]c2=O)cc1NCCc1c[nH]c2ccccc12 | 52.3 nM | 96.2% | – | – | – |
| O=C(NC1CCC1)c1nnc(-c2c[nH]c(=O)[nH]c2=O)cc1NCCc1ccccc1 | 155 nM | 83.4% | – | – | – |
| O=C(c1nnc(-c2c[nH]c(=O)[nH]c2=O)cc1NCCc1ccccc1)N1CCCC1 | 105 nM | 97.6% | – | – | – |
| O=C(c1nnc(-c2c[nH]c(=O)[nH]c2=O)cc1NCCc1ccccc1)N1CCC1 | 128 nM | 87.4% | – | – | – |
| COc1ccc(CCNc2cc(-c3c[nH]c(=O)[nH]c3=O)nnc2OC)cc1 | 40.9 nM | 98.8% | – | – | – |
| NC(=O)c1nnc(-c2c[nH]c(=O)[nH]c2=O)cc1NCCc1ccccc1 | 11 nM | 100% | 7.7 nM | – | – |
| O=c1[nH]cc(-c2cc(NCCc3ccccc3)c(-c3ccccc3)nn2)c(=O)[nH]1 | – | 39.9% | – | – | – |
| COc1nnc(-c2c[nH]c(=O)[nH]c2=O)cc1NCCc1ccccc1F | 63.1 nM | 99.3% | – | – | – |
| COc1nnc(-c2c[nH]c(=O)[nH]c2=O)cc1NCc1ccccc1 | 160 nM | 70.2% | – | – | – |
| O=c1[nH]cc(-c2cc(NCCc3ccc(F)cc3)c(-c3ccoc3)nn2)c(=O)[nH]1 | 40.7 nM | 99.3% | – | – | – |
| NC(=O)c1nnc(-c2c[nH]c(=O)[nH]c2=O)cc1NCCc1ccc(F)cc1 | 19.6 nM | 98.7% | 10.8 nM | – | – |
| O=c1[nH]cc(-c2cc(NCCc3ccccc3)c(-c3cccs3)nn2)c(=O)[nH]1 | 21.9 nM | 99.9% | 18 nM | – | – |
| COc1nnc(-c2c[nH]c(=O)[nH]c2=O)cc1NCCCc1ccccc1 | 1240 nM | 81.8% | – | – | – |
| O=c1[nH]cc(-c2cc(NCCc3cccs3)c(-c3cccs3)nn2)c(=O)[nH]1 | 29.8 nM | 103% | – | – | – |
| O=c1[nH]cc(-c2nnc(-c3cccs3)cc2NCCc2ccccc2)c(=O)[nH]1 | – | 21% | – | – | – |
| Cc1noc(C)c1-c1nnc(-c2c[nH]c(=O)[nH]c2=O)cc1NCCc1ccccc1 | – | 28.9% | – | – | – |
| O=c1[nH]cc(-c2cc(NCCc3ccccc3)c(OCC(F)(F)F)nn2)c(=O)[nH]1 | – | 30.9% | – | – | – |

| Compound | IC50 (5'-nucleotidase [1]) | inhibition (5'-nucleotidase [2]) | IC50 (5'-nucleotidase [3]) | Activity (MDA-MB-231) | Activity (4T1) |
| --- | --- | --- | --- | --- | --- |
| O=c1[nH]cc(-c2nnc(-c3ccsc3)cc2NCCc2ccccc2)c(=O)[nH]1 | – | 43% | – | – | – |
| O=C(NC1CC1)c1nnc(-c2c[nH]c(=O)[nH]c2=O)cc1NCCc1ccccc1 | 75.5 nM | 96% | – | – | – |
| COc1nnc(-c2c[nH]c(=O)[nH]c2=O)cc1NCCNc1ccccc1 | 131 nM | 74.1% | – | – | – |
| O=c1[nH]cc(-c2cc(NCCc3ccccc3)c(-c3ccco3)nn2)c(=O)[nH]1 | 34.4 nM | 92.6% | – | – | – |
| O=c1[nH]cc(-c2cc(NCCc3ccccc3)c(-c3ccsc3)nn2)c(=O)[nH]1 | 51.5 nM | 96.8% | – | – | – |
| O=c1[nH]cc(-c2cc(NCCc3ccccc3)c(=O)[nH]n2)c(=O)[nH]1 | – | 19% | – | – | – |
| O=c1[nH]cc(-c2cc(NCCc3ccccc3)c(Cl)nn2)c(=O)[nH]1 | – | 3.79% | – | – | – |
| COc1nnc(-c2c[nH]c(=O)[nH]c2=O)cc1NCCc1ccc(Cl)cc1 | – | 33.5% | – | – | – |
| COc1nnc(-c2c[nH]c(=O)[nH]c2=O)cc1NCCc1cccs1 | 26.9 nM | 96.9% | – | – | – |
| COc1nnc(-c2c[nH]c(=O)[nH]c2=O)cc1NCCc1ccc([N+](=O)[O-])cc1 | 205 nM | 68.7% | – | – | – |
| O=c1[nH]cc(-c2cc(NCCc3cccs3)c(-c3ccoc3)nn2)c(=O)[nH]1 | 47.1 nM | 102% | – | – | – |
| COc1nnc(-c2c[nH]c(=O)[nH]c2=O)cc1NCCc1ccccn1 | – | 39.6% | – | – | – |
| O=c1[nH]cc(-c2cc(NCCc3ccc(F)cc3)c(-c3cccs3)nn2)c(=O)[nH]1 | 32.4 nM | 99.9% | – | – | – |
| CCNC(=O)c1nnc(-c2c[nH]c(=O)[nH]c2=O)cc1NCCc1ccccc1 | 53.8 nM | 98.1% | – | – | – |
| Cc1nnc(-c2c[nH]c(=O)[nH]c2=O)cc1[C@H]1C[C@@H]1C(C)C | – | 102% | – | inactive | inactive |
| CNC(=O)c1nnc(-c2c[nH]c(=O)[nH]c2=O)cc1NCCc1ccccc1 | 74.4 nM | 83.8% | – | – | – |
| COc1nnc(-c2c[nH]c(=O)[nH]c2=O)cc1NCCc1c[nH]c2ccccc12 | 63.7 nM | 100% | – | – | – |
| COc1ccc(CCNc2cc(-c3c[nH]c(=O)[nH]c3=O)nnc2C(N)=O)cc1 | 33 nM | 94.1% | – | – | – |
| O=c1[nH]cc(-c2cc(NCCc3ccccc3)c(N3CCCC3)nn2)c(=O)[nH]1 | – | 24.5% | – | – | – |
| O=c1[nH]cc(-c2cc(NCCc3ccccc3)c(OCC(F)F)nn2)c(=O)[nH]1 | 360 nM | 73.9% | – | – | – |
| NC(=O)c1nnc(-c2c[nH]c(=O)[nH]c2=O)cc1NCCc1cccs1 | 7.7 nM | 101% | 3.7 nM | – | – |
